{"source": "patent US4269971A", "about": "“Antibiotic TM-531” (Taisho Pharmaceutical Co., Ltd., priority 1978, dated 1981)", "key": {"[1]": {"test_system": "Aspergillus niger NHL 5088", "assay": "Antimicrobial activity (MIC), agar medium", "type": "cell-based", "conditions": "potato dextrose agar", "description": "(§1) The antimicrobial activity of antibiotic TM-531 was determined in terms of the minimum inhibitory concentration (MIC) using a heart infusion agar medium for the determination of activity on bacteria and a potato dextrose agar medium for the determination of activity on fungi and yeast."}, "Bacillus licheniformis": {"test_system": "Bacillus licheniformis", "assay": "Antimicrobial activity (MIC), agar medium", "type": "cell-based", "conditions": "heart infusion agar", "description": "as §1"}, "[2]": {"test_system": "Bacillus subtilis ATCC 6633", "assay": "Antimicrobial activity (MIC), agar medium", "type": "cell-based", "conditions": "heart infusion agar", "description": "as §1"}, "Candida albicans": {"test_system": "Candida albicans", "assay": "Antimicrobial activity (MIC), agar medium", "type": "cell-based", "conditions": "potato dextrose agar", "description": "as §1"}, "Corynebacterium xerosis": {"test_system": "Corynebacterium xerosis", "assay": "Antimicrobial activity (MIC), agar medium", "type": "cell-based", "conditions": "heart infusion agar", "description": "as §1"}, "[3]": {"test_system": "Escherichia coli NIHJ C-2", "assay": "Antimicrobial activity (MIC), agar medium", "type": "cell-based", "conditions": "heart infusion agar", "description": "as §1"}, "Micrococcus luteus NIHJ": {"test_system": "Micrococcus luteus NIHJ", "assay": "Antimicrobial activity (MIC), agar medium", "type": "cell-based", "conditions": "heart infusion agar", "description": "as §1"}, "[4]": {"test_system": "Penicillium citrinum IAM 7003", "assay": "Antimicrobial activity (MIC), agar medium", "type": "cell-based", "conditions": "potato dextrose agar", "description": "as §1"}, "Proteus vulgaris HX 19": {"test_system": "Proteus vulgaris HX 19", "assay": "Antimicrobial activity (MIC), agar medium", "type": "cell-based", "conditions": "heart infusion agar", "description": "as §1"}, "[5]": {"test_system": "Pseudomonas aeruginosa IID 1052", "assay": "Antimicrobial activity (MIC), agar medium", "type": "cell-based", "conditions": "heart infusion agar", "description": "as §1"}, "Saccharomyces cerevisiae": {"test_system": "Saccharomyces cerevisiae", "assay": "Antimicrobial activity (MIC), agar medium", "type": "cell-based", "conditions": "potato dextrose agar", "description": "as §1"}, "[6]": {"test_system": "Staphylococcus aureus FDA 209 P", "assay": "Antimicrobial activity (MIC), agar medium", "type": "cell-based", "conditions": "heart infusion agar", "description": "as §1"}, "[7]": {"test_system": "Staphylococcus aureus Smith", "assay": "Antimicrobial activity (MIC), agar medium", "type": "cell-based", "conditions": "heart infusion agar", "description": "as §1"}, "[8]": {"test_system": "Staphylococcus aureus TRP-23", "assay": "Antimicrobial activity (MIC), agar medium", "type": "cell-based", "conditions": "heart infusion agar", "description": "as §1"}, "[9]": {"test_system": "Staphylococcus epidermidis TPR-25", "assay": "Antimicrobial activity (MIC), agar medium", "type": "cell-based", "conditions": "heart infusion agar", "description": "as §1"}, "[10]": {"test_system": "Staphylococcus epidermidis TRP-13", "assay": "Antimicrobial activity (MIC), agar medium", "type": "cell-based", "conditions": "heart infusion agar", "description": "as §1"}, "[11]": {"test_system": "Streptococcus faecalis ATCC 8043", "assay": "Antimicrobial activity (MIC), agar medium", "type": "cell-based", "conditions": "heart infusion agar", "description": "as §1"}, "Trichophyton asteroides": {"test_system": "Trichophyton asteroides", "assay": "Antimicrobial activity (MIC), agar medium", "type": "cell-based", "conditions": "potato dextrose agar", "description": "as §1"}, "Glomerella cingulata": {"test_system": "Glomerella cingulata", "assay": "Growth inhibitory activity on plant pathogenic microorganisms (colony diameter)", "type": "cell-based", "conditions": "100 mcg/ml, 28° C., 7 days, control medium 27.3 mm"}, "Piricularia sasakii": {"test_system": "Piricularia sasakii", "type": "cell-based", "conditions": "28° C., 7 days"}, "Gibberella fujikuroi": {"test_system": "Gibberella fujikuroi", "assay": "Growth inhibitory activity on plant pathogenic microorganisms (colony diameter)", "type": "cell-based", "conditions": "100 mcg/ml, 28° C., 7 days, control medium 27.6 mm"}, "Botrytis cinerea": {"test_system": "Botrytis cinerea", "assay": "Growth inhibitory activity on plant pathogenic microorganisms (colony diameter)", "type": "cell-based", "conditions": "100 mcg/ml, 28° C., 7 days, control medium 47.7 mm"}, "[12]": {"test_system": "Helminthosporium sigmoldeum", "assay": "Growth inhibitory activity on plant pathogenic microorganisms (colony diameter)", "type": "cell-based", "conditions": "100 mcg/ml, 28° C., 7 days, control medium 22.8 mm"}, "Toxoplasma tachyzoites": {"test_system": "Toxoplasma tachyzoites", "assay": "Antitoxoplasma activity in infected mice macrophage culture", "type": "cell-based, Toxoplasma (in mice macrophage)", "conditions": "0.1 ppm, 37° C., 48 hours", "description": "(§2) A mice macrophage cultured on a TC-199 medium containing 20% of calf serum was infected with Toxoplasma tachyzoites (hereinafter referred to as \"T. tachyzoites\") and cultured at 37° C. for about 1 hour. Thereafter, the resulting culture was washed with a phosphate buffer having pH 7.2 to wash out non-infected T. tachyzoites and an ethanol solution of antibiotic TM-531 was added to the medium at an appropriate concentration of antibiotic TM-531. The medium containing the protozoa and antibiotic TM-531 was incubated at 37° C. for 48 hours and then stained with Trypan Blue, and the number of T. tachyzoites per 100 macrophages was counted to determine the antitoxoplasma activity of antibiotic TM-531 as compared with the number of T. tachyzoites per 100 macrophages in the control medium containing no antibiotic TM-531."}, "macrophage": {"test_system": "macrophage", "assay": "Toxic sign on macrophage by optical microscope", "type": "cell-based", "conditions": "mice macrophage culture with TM-531", "description": "as §2"}, "Eimeria tenella": {"test_system": "Eimeria tenella", "assay": "Activity against Eimeria tenella in infected chicks", "type": "in vivo, Eimeria tenella in male chicks (white leghorn)", "conditions": "0.01% by weight in feed, 8 days after infection", "description": "Male chicks (white leghorn species) immediately after hatching were fed with a mixed feed for chicks containing no anti-coccidium agent until the test started. On the 8th day of feeding, health conditions of the test chicks were observed and the body weight was determined thereby dividing the test chicks into three groups, each group comprising 10 chicks and having an equal distribution of body weight. The test group was fed with a mixed feed for chicks containing 0.01% by weight of antibiotic TM-531 and the infected control group and the healthy group were fed with the same mixed feed but containing no antibiotic TM-531. On the 48th hour of feeding, each of chicks of the test group and the infected control group was infected with 9×10^4 mature oocysts of Eimeria tenella by oral administration. Eight days after infection, body weight increase (%), mortality (%) and O.P.G. [The number of oocysts (×10^4) present in 1 g of the content of caecum] were determined, and faeces conditions were observed and compared with those of the healthy group to determine the activity of antibiotic TM-531 against Eimeria tenella."}, "Solubility": {"assay": "Solubility", "type": "physicochemical"}, "[13]": {"test_system": "gram-positive and plant pathogenic microorganisms", "assay": "Physiological properties: growth inhibitory activity", "conditions": "in words"}, "protozoa": {"test_system": "protozoa", "assay": "Physiological properties: activity on protozoa", "conditions": "protozoa as hog dysentery, coccidium, toxoplasma, trypanosome, malaria, etc.; in words"}, "[14]": {"test_system": "gram-negative bacteria and yeasts", "assay": "Physiological properties: activity on gram-negative bacteria and yeasts", "conditions": "in words"}}}
{"compound": "COC1CCC(OC2CC(C3(C)CCC4(CC(O)C(C)C(C(C)/C=C(\\C)C(=O)C(C)CC(C)C(=O)O)O4)O3)OC3(OC(C4OC(C)(O)C(C)CC4C)CC3C)C2C)OC1C", "note": "(centres unmarked) [TM-531]", "values": [{"measurement": "Minimum Inhibitory Concentration", "setting": "[1]", "result": "> 100", "unit": "µg/mL"}, {"measurement": "Minimum Inhibitory Concentration", "setting": "Bacillus licheniformis", "result": 1.56, "unit": "µg/mL"}, {"measurement": "Minimum Inhibitory Concentration", "setting": "[2]", "result": 1.56, "unit": "µg/mL"}, {"measurement": "Minimum Inhibitory Concentration", "setting": "Candida albicans", "result": "> 100", "unit": "µg/mL"}, {"measurement": "Minimum Inhibitory Concentration", "setting": "Corynebacterium xerosis", "result": 1.56, "unit": "µg/mL"}, {"measurement": "Minimum Inhibitory Concentration", "setting": "[3]", "result": "> 100", "unit": "µg/mL"}, {"measurement": "Minimum Inhibitory Concentration", "setting": "Micrococcus luteus NIHJ", "result": 3.13, "unit": "µg/mL"}, {"measurement": "Minimum Inhibitory Concentration", "setting": "[4]", "result": "> 100", "unit": "µg/mL"}, {"measurement": "Minimum Inhibitory Concentration", "setting": "Proteus vulgaris HX 19", "result": "> 100", "unit": "µg/mL"}, {"measurement": "Minimum Inhibitory Concentration", "setting": "[5]", "result": "> 100", "unit": "µg/mL"}, {"measurement": "Minimum Inhibitory Concentration", "setting": "Saccharomyces cerevisiae", "result": "> 100", "unit": "µg/mL"}, {"measurement": "Minimum Inhibitory Concentration", "setting": "[6]", "result": 1.56, "unit": "µg/mL"}, {"measurement": "Minimum Inhibitory Concentration", "setting": "[7]", "result": 6.25, "unit": "µg/mL"}, {"measurement": "Minimum Inhibitory Concentration", "setting": "[8]", "result": 3.13, "unit": "µg/mL"}, {"measurement": "Minimum Inhibitory Concentration", "setting": "[9]", "result": 3.13, "unit": "µg/mL"}, {"measurement": "Minimum Inhibitory Concentration", "setting": "[10]", "result": 3.13, "unit": "µg/mL"}, {"measurement": "Minimum Inhibitory Concentration", "setting": "[11]", "result": 6.25, "unit": "µg/mL"}, {"measurement": "Minimum Inhibitory Concentration", "setting": "Trichophyton asteroides", "result": "> 100", "unit": "µg/mL"}, {"measurement": "Colony Diameter, TM-531 Containing Medium", "setting": "Glomerella cingulata", "result": 13.4, "unit": "mm"}, {"measurement": "Colony Diameter, TM-531 Containing Medium", "setting": "Piricularia sasakii", "result": 63.0, "unit": "mm"}, {"measurement": "Colony Diameter, TM-531 Containing Medium", "setting": "Gibberella fujikuroi", "result": 20.2, "unit": "mm"}, {"measurement": "Colony Diameter, TM-531 Containing Medium", "setting": "Botrytis cinerea", "result": 46.7, "unit": "mm"}, {"measurement": "Colony Diameter, TM-531 Containing Medium", "setting": "[12]", "result": 15.4, "unit": "mm"}, {"measurement": "Percent Macrophage infected with T. tachyzoites, 1 ~ 5/cell", "setting": "Toxoplasma tachyzoites; T. tachyzoites 1 ~ 5/cell, control medium 30.8", "result": 0, "unit": "%"}, {"measurement": "Percent Macrophage infected with T. tachyzoites, ≥6/cell", "setting": "Toxoplasma tachyzoites; T. tachyzoites ≥6/cell, control medium 22.4", "result": 0, "unit": "%"}, {"measurement": "toxic sign on macrophage", "setting": "macrophage", "result": "no toxic sign on macrophage"}, {"measurement": "O.P.G. (number of oocysts present in 1 g of the content of caecum)", "setting": "Eimeria tenella; infected control 17.3, healthy control 0", "result": "0 × 10^4"}, {"measurement": "Mortality", "setting": "Eimeria tenella; infected control 60, healthy control 0", "result": 0, "unit": "%"}, {"measurement": "Body Weight Increase", "setting": "Eimeria tenella; infected control 77.0, healthy control 100.0", "result": 105.1, "unit": "%"}, {"measurement": "Faeces Conditions", "setting": "Eimeria tenella; infected control loose passage 100%, hemafecial 80%", "result": "Normal"}, {"measurement": "Solubility in organic solvents", "setting": "Solubility; methanol, ethanol, acetone, ethyl acetate, diethyl ether, benzene, chloroform, hexane and petroleum ether", "result": "soluble in methanol, ethanol, acetone, ethyl acetate, diethyl ether, benzene, chloroform, hexane and petroleum ether"}, {"measurement": "Solubility in water", "setting": "Solubility; water", "result": "insoluble in water"}, {"measurement": "growth inhibitory activity", "setting": "[13]", "result": "exhibits growth inhibitory activity"}, {"measurement": "effect on protozoa", "setting": "protozoa", "result": "effective on protozoa"}, {"measurement": "effect on gram-negative bacteria and yeasts", "setting": "[14]", "result": "ineffective on gram-negative bacteria and yeasts"}]}
